Active and inactive are the calls of the source. No cut-off for these calls is given here.

Test [1] in a line: Inhibition of Streptococcus agalactiae COH1 NSR transfected in Lactococcus lactis NZ9000 assessed as decrease in NSR-induced resistance by measuring increase in growth inhibition incubated for 5 hrs by optical density based plate reader assay.
The nature of test [2]: Resistance ratio of IC50 for inhibition of Lactococcus lactis ATP-binding cassette transporter NisFEG harboring in Lactococcus lactis NZ9000 assessed as decrease in NisFEG induced resistance measured as increase in growth inhibition to IC50 for growth inhibition of nisin-sensitive Lactococcus lactis NZ9000Cm incubated for 5 hrs by optical density based plate reader assay.

Test [3] in a line: Inhibition of Lactococcus lactis ATP-binding cassette transporter NisFEG harboring in Lactococcus lactis NZ9000 assessed as decrease in NisFEG induced resistance measured as increase in growth inhibition incubated for 5 hrs by optical density based plate reader assay.
A short description of test [4]: Inhibition of Lactococcus lactis Nis1 harboring in Lactococcus lactis NZ9000 assessed as decrease in Nis1 induced resistance measured as increase in growth inhibition incubated for 5 hrs by optical density based plate reader assay.
Test [5] in a line: Resistance ratio of IC50 for Inhibition of Lactococcus lactis Nis1 harboring in Lactococcus lactis NZ9000 assessed as decrease in Nis1 induced resistance measured as increase in growth inhibition to IC50 for growth inhibition of nisin-sensitive Lactococcus lactis NZ9000Cm incubated for 5 hrs by optical density based plate reader assay.
Test [6] in a line: Resistance ratio of IC50 for inhibition of Streptococcus agalactiae COH1 NsrFP transfected in Lactococcus lactis NZ9000 assessed as decrease in NsrFP induced resistance measured as increase in growth inhibition to IC50 for growth inhibition of nisin-sensitive Lactococcus lactis NZ9000Cm incubated for 5 hrs by optical density based plate reader assay.
The test system of test [7] is Lactococcus lactis. Put plainly: Induction of pore formation in Lactococcus lactis NZ9000Cm assessed as increase in florescence intensity at 3 times antibacterial IC50 measured after 200 secs by sytox green-based fluorescence assay relative to control. The class given is functional.
Test [8] in a line: Resistance ratio of IC50 for inhibition of Streptococcus agalactiae COH1 NSR transfected in Lactococcus lactis NZ9000 assessed as decrease in NSR induced resistance measured as increase in growth inhibition to IC50 for growth inhibition of nisin-sensitive Lactococcus lactis NZ9000Cm incubated for 5 hrs by optical density based plate reader assay.
The subject of test [9] is Lactococcus lactis. Put plainly: Growth inhibition of nisin-sensitive Lactococcus lactis NZ9000Cm incubated for 5 hrs by optical density based plate reader assay. The class given is functional, organism-based.
The nature of test [10]: Inhibition of Streptococcus agalactiae COH1 NsrFP transfected in Lactococcus lactis NZ9000 assessed as decrease in NsrFP-induced resistance by measuring increase in growth inhibition incubated for 5 hrs by optical density based plate reader assay.
The subject of test [11] is Lactococcus lactis. The test is described as follows: Induction of pore formation in Lactococcus lactis NZ9000Cm assessed as increase in florescence intensity at 3 times antibacterial IC50 measured after 200 secs by sytox green-based fluorescence assay. The class given is functional, organism-based.

In general, IC50 refers to the concentration that gives 50% inhibition. Consider `C=C(NC(=O)[C@@H](NC(=O)[C@H](Cc1cnc[nH]1)NC(=O)[C@@H](NC(=O)[C@H](CO)NC(=O)[C@@H]1CS[C@@H](C)[C@@H]2NC(=O)[C@H](C)NC(=O)[C@@H](NC(=O)[C@H](CCCCN)NC(=O)[C@H](CCSC)NC(=O)[C@@H](NC(=O)[C@@H](NC(=O)[C@H](CC(N)=O)NC(=O)[C@@H]3CS[C@@H](C)[C@H](NC(=O)[C@H](CCCCN)NC(=O)[C@@H]4CS[C@@H](C)[C@H](NC(=O)[C@@H]5CSC[C@H](NC(=O)/C(=C/C)NC(=O)[C@@H](N)[C@@H](C)CC)C(=O)N[C@@H]([C@@H](C)CC)C(=O)NC(=C)C(=O)N[C@@H](CC(C)C)C(=O)N5)C(=O)N5CCC[C@H]5C(=O)NCC(=O)N4)C(=O)NCC(=O)N[C@@H](C)C(=O)N[C@@H](CC(C)C)C(=O)N[C@@H](CCSC)C(=O)NCC(=O)N3)[C@@H](C)CC)C(C)C)[C@H](C)SC[C@H](NC2=O)C(=O)N[C@@H](Cc2cnc[nH]2)C(=O)N1)[C@@H](C)CC)C(C)C)C(=O)N[C@@H](CCCCN)C(=O)O`, for which the IC50 in test [1] was found to be 102 nM; in test [3], 107 nM; in test [4] it was 77.3 nM; with Lactococcus lactis [9], 8.17 nM; in test [10], 121 nM. Further, the Ratio IC50 stood at 13.1 in [2], 9.46 in test [5], 14.8 in test [6] and 12.4 in [8]. The Activity in the test with Lactococcus lactis [7] is 15%.

As for `C=C(NC(=O)[C@@H](NC(=O)[C@H](Cc1cnc[nH]1)NC(=O)[C@@H](NC(=O)[C@H](CO)NC(=O)[C@@H]1CS[C@@H](C)[C@@H]2NC(=O)[C@H](C)NC(=O)[C@@H](NC(=O)[C@@H](NC(=O)[C@@H](NC(=O)[C@H](CCCCN)NC(=O)[C@H](CCSC)NC(=O)[C@H](CC(N)=O)NC(=O)[C@@H]3CS[C@@H](C)[C@H](NC(=O)[C@H](CCCCN)NC(=O)[C@@H]4CS[C@@H](C)[C@H](NC(=O)[C@@H]5CSC[C@H](NC(=O)/C(=C/C)NC(=O)[C@@H](N)[C@@H](C)CC)C(=O)N[C@@H]([C@@H](C)CC)C(=O)NC(=C)C(=O)N[C@@H](CC(C)C)C(=O)N5)C(=O)N5CCC[C@H]5C(=O)NCC(=O)N4)C(=O)NCC(=O)N[C@@H](C)C(=O)N[C@@H](CC(C)C)C(=O)N[C@@H](CCSC)C(=O)NCC(=O)N3)[C@@H](C)CC)C(C)C)[C@H](C)SC[C@H](NC2=O)C(=O)N[C@@H](Cc2cnc[nH]2)C(=O)N1)[C@@H](C)CC)C(C)C)C(=O)N[C@@H](CCCCN)C(=O)O`, the IC50 in test [1] was found to be 64.8 nM; in test [3], 36.9 nM; in test [4], 73.2 nM; in the test with Lactococcus lactis [9], 22.3 nM; in test [10], 44.4 nM. Besides, the Ratio IC50 turned out to be 1.66 in test [2], 3.29 in test [5], 1.99 in [6] and 2.91 in test [8]. In addition, the result in the test with Lactococcus lactis [11] was Active.

For `C=C(NC(=O)[C@@H](NC(=O)[C@H](Cc1cnc[nH]1)NC(=O)[C@@H](NC(=O)[C@H](CO)NC(=O)[C@@H]1CS[C@@H](C)[C@@H]2NC(=O)[C@H](C)NC(=O)[C@@H](NC(=O)[C@H](CC(N)=O)NC(=O)[C@@H]3CS[C@@H](C)[C@H](NC(=O)[C@H](CCCCN)NC(=O)[C@@H]4CS[C@@H](C)[C@H](NC(=O)[C@@H]5CSC[C@H](NC(=O)/C(=C/C)NC(=O)[C@@H](N)[C@@H](C)CC)C(=O)N[C@@H]([C@@H](C)CC)C(=O)NC(=C)C(=O)N[C@@H](CC(C)C)C(=O)N5)C(=O)N5CCC[C@H]5C(=O)NCC(=O)N4)C(=O)NCC(=O)N[C@@H](C)C(=O)N[C@@H](CC(C)C)C(=O)N[C@@H](CCSC)C(=O)NCC(=O)N3)[C@H](C)SC[C@H](NC2=O)C(=O)N[C@@H](Cc2cnc[nH]2)C(=O)N1)[C@@H](C)CC)C(C)C)C(=O)N[C@@H](CCCCN)C(=O)O`, the IC50 in test [1] stood at 221 nM; in test [3] it was 72.1 nM; in test [4], 109 nM; in the test with Lactococcus lactis [9], 43.4 nM; in test [10] it was 213 nM. For the same molecule, the Ratio IC50 in test [2] was 1.66; in [5], 2.5; in [6] it was 4.9; in [8], 5.09. The result with Lactococcus lactis [11] was inactive.
